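All cell lines were grown in 96-well plates and treated with compound for 48 hours. The concentration for 50% growth inhibition is given as GI50.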 The source made the active and inactive calls. No stated cut-off is given here; in the data, active = GI50 up to about 1.1 µM and inactive = higher.
Legend:
Assay in all cases: growth of human tumour cells (NCI), 48 h
NCI-H460 = tested on: NCI-H460
M14 = tested on: M14
COLO 205 = tested on: COLO 205
ACHN = tested on: ACHN
UACC-62 = tested on: UACC-62
RPMI-8226 = tested on: RPMI-8226
SNB-75 = tested on: SNB-75
SK-MEL-2 = tested on: SK-MEL-2
KM-20L2 = tested on: KM-20L2
RXF 393 = tested on: RXF 393
TK-10 = tested on: TK-10
SR = tested on: SR
SF-295 = tested on: SF-295
SK-OV-3 = tested on: SK-OV-3
K562 = tested on: K562
HT-29 = tested on: HT-29
SNB-78 = tested on: SNB-78
UO-31 = tested on: UO-31
CCRF-CEM = tested on: CCRF-CEM
XF498 = tested on: XF498
EKVX = tested on: EKVX
MOLT-4 = tested on: MOLT-4
HOP-92 = tested on: HOP-92
LXFL 529 = tested on: LXFL 529
KM12 = tested on: KM12
HOP-62 = tested on: HOP-62
UACC-257 = tested on: UACC-257
LOX IMVI = tested on: LOX IMVI
OVCAR-3 = tested on: OVCAR-3
HOP-18 = tested on: HOP-18
A549 = tested on: A549
RXF 631 = tested on: RXF 631
SNB-19 = tested on: SNB-19
A498 = tested on: A498
786-0 = tested on: 786-0
NCI-H522 = tested on: NCI-H522
NCI-H226 = tested on: NCI-H226
SW-620 = tested on: SW-620
HCC 2998 = tested on: HCC 2998
HCT-116 = tested on: HCT-116
DMS-273 = tested on: DMS-273
DMS-114 = tested on: DMS-114
Malme-3M = tested on: Malme-3M
SK-MEL-5 = tested on: SK-MEL-5
CAKI-1 = tested on: CAKI-1
SF-268 = tested on: SF-268
U-251 = tested on: U-251
OVCAR-5 = tested on: OVCAR-5
HL-60 = tested on: HL-60
NCI-H23 = tested on: NCI-H23
OVCAR-8 = tested on: OVCAR-8
SN12C = tested on: SN12C
M19-MEL = tested on: M19-MEL
OVCAR-4 = tested on: OVCAR-4
IGROV-1 = tested on: IGROV-1
SK-MEL-28 = tested on: SK-MEL-28
HCT-15 = tested on: HCT-15
DLD-1 = tested on: DLD-1

CC(C)(C)CC(C)(C)c1ccc(OCCOCC[N+](C)(C)Cc2ccccc2)cc1 [BENZETHONIUM CHLORIDE]
GI50 (NCI-H460): 3050 nM (inactive)
GI50 (M14): 2080 nM (inactive)
GI50 (COLO 205): 1490 nM (inactive)
GI50 (ACHN): 11600 nM (inactive)
GI50 (UACC-62): 1360 nM (inactive)
GI50 (RPMI-8226): 1290 nM (inactive)
GI50 (SNB-75): 2430 nM (inactive)
GI50 (SK-MEL-2): 2060 nM (inactive)
GI50 (KM-20L2): 3890 nM (inactive)
GI50 (RXF 393): 3110 nM (inactive)
GI50 (TK-10): 3640 nM (inactive)
GI50 (SR): 2030 nM (inactive)
GI50 (SF-295): 11000 nM (inactive)
GI50 (SK-OV-3): 7430 nM (inactive)
GI50 (K562): 2190 nM (inactive)
GI50 (HT-29): 1600 nM (inactive)
GI50 (SNB-78): 1630 nM (inactive)
GI50 (UO-31): 21600 nM (inactive)
GI50 (CCRF-CEM): 1790 nM (inactive)
GI50 (XF498): 377 nM (active)
GI50 (EKVX): 4200 nM (inactive)
GI50 (MOLT-4): 2220 nM (inactive)
GI50 (HOP-92): 1880 nM (inactive)
GI50 (LXFL 529): 1320 nM (inactive)
GI50 (KM12): 1610 nM (inactive)
GI50 (HOP-62): 8930 nM (inactive)
GI50 (UACC-257): 1450 nM (inactive)
GI50 (LOX IMVI): 1420 nM (inactive)
GI50 (OVCAR-3): 1520 nM (inactive)
GI50 (HOP-18): 2790 nM (inactive)
GI50 (A549): 8710 nM (inactive)
GI50 (RXF 631): 11900 nM (inactive)
GI50 (SNB-19): 3100 nM (inactive)
GI50 (A498): 16600 nM (inactive)
GI50 (786-0): 5010 nM (inactive)
GI50 (NCI-H522): 1660 nM (inactive)
GI50 (NCI-H226): 5190 nM (inactive)
GI50 (SW-620): 2690 nM (inactive)
GI50 (HCC 2998): 1500 nM (inactive)
GI50 (HCT-116): 1710 nM (inactive)
GI50 (DMS-273): 1440 nM (inactive)
GI50 (DMS-114): 1150 nM (inactive)
GI50 (Malme-3M): 1520 nM (inactive)
GI50 (SK-MEL-5): 1390 nM (inactive)
GI50 (CAKI-1): 10100 nM (inactive)
GI50 (SF-268): 1940 nM (inactive)
GI50 (U-251): 1540 nM (inactive)
GI50 (OVCAR-5): 6170 nM (inactive)
GI50 (HL-60): 883 nM (active)
GI50 (NCI-H23): 1660 nM (inactive)
GI50 (OVCAR-8): 3190 nM (inactive)
GI50 (SN12C): 3520 nM (inactive)
GI50 (M19-MEL): 1530 nM (inactive)
GI50 (OVCAR-4): 2060 nM (inactive)
GI50 (IGROV-1): 1520 nM (inactive)
GI50 (SK-MEL-28): 1860 nM (inactive)
GI50 (HCT-15): 20500 nM
GI50 (DLD-1): 4210 nM (inactive)

Reference: ChEMBL document CHEMBL1201862, “PubChem BioAssay data set” (2004)
